Read-outs that look alike come from different tables or passages of the source.
Tests used:
[1] = target: T1, human recombinant COX2 (hCOX2) (UniProt P35354); assay: LCMS-based COX2 enzymatic inhibition assay (PGE2 quantification); assay type: biochemical; set-up: COX2 2 minutes pge2/pge2d4 area ratio Avg; other: 2 minutes; readout pge2/pge2d4 area ratio; average; COX2 2 minutes pge2/pge2d4 area ratio Avg; LLE; average LLE; COX2 2 minutes pge2 area (counts) Avg; readout pge2 area (counts); other: 2 min; "ovine COX2 (oCOX2), human recombinant COX2 (hCOX2)"; settings: 2 minutes; for COX2 2 minutes pge2/pge2d4 area ratio Avg. LLE / COX2 2 minutes pge2 area (counts) Avg. LLE: average LLE; for IC50: average
T1 sequence (P35354 1-604): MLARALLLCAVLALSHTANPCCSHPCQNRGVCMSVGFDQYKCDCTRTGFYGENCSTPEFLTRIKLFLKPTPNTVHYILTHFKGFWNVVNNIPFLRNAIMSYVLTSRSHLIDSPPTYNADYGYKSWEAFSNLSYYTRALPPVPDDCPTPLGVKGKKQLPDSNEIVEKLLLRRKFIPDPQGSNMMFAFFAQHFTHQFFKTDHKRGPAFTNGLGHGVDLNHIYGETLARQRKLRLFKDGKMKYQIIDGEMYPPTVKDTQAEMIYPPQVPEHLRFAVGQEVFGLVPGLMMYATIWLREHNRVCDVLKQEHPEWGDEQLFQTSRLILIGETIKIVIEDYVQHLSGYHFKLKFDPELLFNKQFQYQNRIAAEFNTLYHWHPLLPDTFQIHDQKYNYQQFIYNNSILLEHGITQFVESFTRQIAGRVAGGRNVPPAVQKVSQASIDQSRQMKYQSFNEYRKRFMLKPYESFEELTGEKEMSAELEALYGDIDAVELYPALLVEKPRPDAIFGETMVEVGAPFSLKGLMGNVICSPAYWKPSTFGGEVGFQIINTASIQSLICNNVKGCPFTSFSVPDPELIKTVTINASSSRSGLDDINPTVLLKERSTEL
In short: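 Ovine COX-1 (0.1 μg) or human recombinant COX2 (0.2 μg) in 100 mM Tris.HCl pH 8.0 with hematin and epinephrine, preincubated with inhibitor 10 min at 37 °C. Reaction with 5 μM arachidonic acid stopped after 2 min with HCl; PGE2 quantified by LC-MS-MS. IC50 from 12 concentrations in triplicate.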

ovine COX-1 (oCOX-1) = target: T2, ovine COX-1 (oCOX-1) (Ovis aries, UniProt P05979); assay: LCMS-based COX-1 enzymatic inhibition assay (PGE2 quantification); assay type: biochemical
T2 construct: purchased Cayman Chemicals (Ann Arbor, Mich.)
T2 sequence (P05979 25-600): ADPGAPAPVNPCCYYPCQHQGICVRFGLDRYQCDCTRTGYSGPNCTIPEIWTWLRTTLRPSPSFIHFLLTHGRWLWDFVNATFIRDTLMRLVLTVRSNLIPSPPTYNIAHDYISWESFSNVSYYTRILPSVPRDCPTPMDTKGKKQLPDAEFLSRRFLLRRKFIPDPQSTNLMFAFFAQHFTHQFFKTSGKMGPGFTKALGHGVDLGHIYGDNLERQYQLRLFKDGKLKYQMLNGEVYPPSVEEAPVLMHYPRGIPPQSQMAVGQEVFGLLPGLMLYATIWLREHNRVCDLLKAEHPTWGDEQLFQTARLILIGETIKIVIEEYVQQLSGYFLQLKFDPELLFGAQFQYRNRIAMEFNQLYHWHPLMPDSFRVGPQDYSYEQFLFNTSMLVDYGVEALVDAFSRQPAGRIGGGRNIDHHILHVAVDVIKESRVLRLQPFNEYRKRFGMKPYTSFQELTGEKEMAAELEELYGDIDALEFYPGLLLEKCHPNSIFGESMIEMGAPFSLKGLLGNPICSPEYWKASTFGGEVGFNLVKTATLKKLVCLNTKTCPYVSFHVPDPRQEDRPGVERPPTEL
Description: We have adapted a previously reported cyclooxygenase enzymatic assay utilizing LCMS quantification of PGE2 as the product of COX-1 and COX2 catalyzed conversion of arachidonic acid to evaluate the binding properties of newly synthesized ligands [Cao, 2011]. These optimized and miniaturized (384-well plates) LCMS-based COX-1 and COX2 enzymatic assays enabled us to quickly evaluate newly synthesized ligands for COX2 binding affinity and selectivity vs COX-1. Using a shorter ligand-enzyme incubation time in the LCMS assay (2 minutes vs 10 minutes) also permitted us to prioritize ligands with faster binding kinetics. Considering the relatively slow on-rate kinetics of known coxibs, due to their 3-step binding mechanism [Marnett, 2009], we believe that optimizing this critical parameter will be key to the successful development of a COX2 PET tracer. Using these enzymatic assays, we have evaluated>200 newly synthesized ligands against COX2 and >20 ligands against COX-1. Another critical property necessary for a good PET radiotracer is to have low non-specific binding (NSB) to increase the free fraction and maximize the signal to noise ratio. This property can be evaluated using in-vitro protein binding assays, and we have now evaluated>50 newly synthesized ligands in mouse, rat and human plasma protein binding (PPB) assays as well as >15 ligands in a mouse brain protein binding (BPB) assay.
Ovine COX-1 (oCOX-1), ovine COX2 (oCOX2), human recombinant COX2 (hCOX2), arachidonic acid, PGE2, d4-PGD2, and […] (labeled with deuterium atoms at positions 3 and 4) were purchased from Cayman Chemicals (Ann Arbor, Mich.). The cofactors (−)epinephrine and hematin, and the COX inhibitors indomethacin, resveratrol and diclofenac were purchased from Sigma-Aldrich (St. Louis, Mo.). Celecoxib was purchased from 3B PharmaChem International (Wuhan, China). All organic solvents were HPLC grade or better and were purchased from Thermo Fisher (Hanover Park, Ill.). Formic acid was purchased from EMD Chemicals (San Diego, Calif.). Purified water was prepared by using a Millipore Milli-Q purification system (Millipore, Billerica, Mass.). All other chemicals and solvents were ACS reagent grade, unless stated otherwise.
In an Eppendorf tube, 146 μL of 100 mM Tris.HCl (pH 8.0) buffer, 2 μL of 100 μM hematin (co-factor) and 10 μL of 40 mM L-epinephrine (co-factor) were mixed at room temperature. Next, 20 μL of Tris.HCl (pH 8.0) buffer containing 0.2 μg COX2 or 0.1 μg COX-1 (approximately 1 unit of enzyme; 1 unit COX utilizes 1 nmol 02/mg/min at 37° C.) was added, and the solution was incubated at room temperature for 2 min. A 2 μL aliquot of the COX inhibitor in DMSO was added to the enzyme solution and preincubated at 37° C. for 10 min. Negative controls were identical except that 2 μL aliquots of DMSO without inhibitor were used instead.
Each COX reaction was initiated by adding 20 μL of arachidonic acid in Tris.HCl (pH 8.0) buffer to give a final concentration of 5 μM; and the reaction was terminated after 2 min by adding 20 μL of 2.0 M HCl. The surrogate standards d4-PGE2 and d4-PGD2 (10 μL aliquot of 50 ng/mL solution in methanol) were added to correct for errors or degradation during sample handling and for variation in injection volume or instrument response during LC-MS-MS. After 30 min, PGE2, PGD2 and their surrogate standards were extracted from each incubation mixture using 800 μL hexane/ethyl acetate (50:50, v/v). The organic phase was removed, evaporated to dryness, and reconstituted in 100 μL methanol/water (50:50, v/v) for analysis using LC-MS-MS.
The concentration of PGE2 in each sample was measured using LC-MS-MS, and the percent of COX inhibition by each test solution was determined by comparing the amount of PGE2 produced in the experiment with that produced in the negative control incubation. The formation of PGD2 was measured for quality control purposes, since the levels of PGD2 should be proportional to those of PGE2. […]

[2] = readout pge2/pge2d4 area ratio, read-out: COX2 2 minutes pge2/pge2d4 area ratio Avg. IC50
[3] = readout pge2 area (counts), read-out: COX2 2 minutes pge2 area (counts) Avg. IC50
[4] = 10 minutes, readout pge2/pge2d4 area ratio, average LLE
[5] = 10 minutes, readout pge2/pge2d4 area ratio, average, read-out: COX1 10 minutes pge2/pge2d4 area ratio Avg. IC50
[6] = 10 minutes, readout pge2 area (counts), average LLE
[7] = 10 minutes, readout pge2 area (counts), average, read-out: COX1 10 minutes pge2 area (counts) Avg. IC50
[8] = 10 minutes, pge2 area (counts), head of this section not shown, inferred
[9] = 10 minutes, pge2 area (counts), head of this section not shown, inferred, read-out: COX1 10 minutes pge2 area (counts) Avg. IC50
[10] = 10 minutes, pge2/pge2d4 area ratio, head of this section not shown, inferred

Structure (SMILES)	COX2 2 minutes pge2/pge2d4 area ratio Avg. LLE ([1]; readout pge2/pge2d4 area ratio)	IC50 [1, 2] [nM]	COX2 2 minutes pge2 area (counts) Avg. LLE ([1]; readout pge2 area (counts))	IC50 [1, 3] [nM]	COX1 10 minutes pge2/pge2d4 area ratio Avg. LLE (ovine COX-1 (oCOX-1); [4])	IC50 (ovine COX-1 (oCOX-1); [5]) [nM]	COX1 10 minutes pge2 area (counts) Avg. LLE (ovine COX-1 (oCOX-1); [6])	IC50 (ovine COX-1 (oCOX-1); [7]) [nM]	COX1 10 minutes pge2 area (counts) Avg. LLE (ovine COX-1 (oCOX-1); [8])	IC50 (ovine COX-1 (oCOX-1); [9]) [nM]	IC50 (ovine COX-1 (oCOX-1)) [nM]	COX1 10 minutes pge2/pge2d4 area ratio Avg. LLE (ovine COX-1 (oCOX-1); [10])
CS(=O)(=O)c1ccc(-c2cccc(NCc3cccs3)c2)cc1 [Compound 42]	3.551	19.5	3.78	6.71	0.01187	36200	−0.01745	38700				
Cn1cccc1CNc1cccc(-c2ccc(S(C)(=O)=O)cc2)n1 [Compound 77]	4.259	48.6	4.246	53.8					1.289	40900		
CS(=O)(=O)c1ccc(-c2cccc(NCc3ccsc3)n2)cc1 [Compound 11]	4.584	8.42	4.6244	8.13			0.8485	42800				
CSc1ccc(NCc2cccs2)nc1-c1ccc(S(C)(=O)=O)cc1 [Compound 20]	3.9449	10.8	3.942	11.5	0.214		0.214				52000	
CS(=O)(=O)c1ccc(-c2cnc3ccn(Cc4ccco4)c3n2)cc1 [Compound 82]	4.353	57.3	4.328	63.3		17200			1.853	17600		1.865
Cc1ccoc1CNc1cccc(-c2ccc(S(C)(=O)=O)cc2)n1 [Compound 91]	4.034	68.6	4.0886	65.3		38300			1.134			1.267
CS(=O)(=O)c1ccc(-n2ccc3cnc(NCc4cccs4)nc32)cc1 [Compound 80]	3.33	52	3.382	45.5		37800						0.4422
CSc1ccc(-c2cncc(NCc3cccs3)n2)cc1 [Compound 84]	3.898	58	4.023	52.5					2.207	1790		
CSc1ccc(-c2cncc(OCc3cccs3)n2)cc1 [Compound 253]	1.5751	3760	1.45	4840					0.8637	19300		
CS(=O)(=O)c1ccc(-c2cncc(SCc3ccco3)n2)cc1 [Compound 78]		49.4		43.6		33500						
CS(=O)(=O)c1ccc(-c2cnc3cnn(Cc4cccs4)c3n2)cc1 [Compound 94]	4.786	71	4.818	69.9		10200			2.532	10700		2.552
CS(=O)(=O)c1ccc(-n2ccc3ccc(NCc4cccs4)nc32)cc1 [Compound 57]	3.1281	30.6	3.132	29.8					−0.1826	50400	52000	−0.196
Cc1ncc(-c2ccc(S(C)(=O)=O)cc2)nc1OCc1cccs1 [Compound 38]	5.142	18.4	5.088	20.6	3.526	699	3.306	1230				

— US20220348590A1, “CYCLOOXYGENASE-2 INHIBITORS AND USES THEREOF” (The Board Institute, Inc., priority 2019, published 2022)
